One data set relates to L. major LV39. In words: In vivo activity against Leishmania major LV39 substrain. On the set-up: species or system BALB/c mice. How it is done:
Thus, 6-week-old female BALB/c mice weighing approximately 20 g were used. […] Briefly, ketamine (80mg/kg) and xylazine (8 mg/kg) were simultaneously used to anesthetize the mice by intraperitoneal injection. The promastigotes of L. major LV39 substrain in the stationary phase, harvested after the third passage (obtained from parasites frozen), were inoculated subcutaneously at a concentration of 1x 10^5 parasites in the right ear of mice. […] The size of the lesions was measured using a pachymeter. Thiopental (150 mg/kg, i.p.) was used to euthanize the mice and the quantitative limiting-dilution assay was used to determine the parasite burden of infected ears and draining lymph nodes. The results obtained from experiments were expressed as the mean ± S.E.M. with the data analyzed (size of the lesions or parasite burden) by ANOVA and Dunnett hoc tests, considering a significance level of p < 0.05.

Data set [1] has as its system peritoneal macrophages infected with L. major LV39. The data set is described as follows: Nitrite measurement (Griess reaction) in infected macrophages. It counts as cell-based, BALB/c mice. Conditions: BALB/c macrophages infected with L. major LV39. How it is done:
Briefly, female BALB/c mice (6 to 8 weeks old) received 1 mL sterile of 3% sodium thioglycolate by intraperitoneal route (i.p.) and were euthanized after 4 days. The intraperitoneal lavage was collected from the peritoneal cavity of mice using sterile PBS and cells were counted in a hemocytometer. Peritoneal adherent cells (macrophages) were plated at a concentration of 2 x 10^5 cells per well in 24-well culture plates containing glass coverslips. Subsequently, L. major promastigotes (harvested after the third passage) were added at a concentration of 2 x 10^6 parasites per well, aiming to infect the macrophages. […] After 24 hours in an incubator at 37 °C and 5% CO2, the coverslips were washed with PBS and stained with Giemsa-May Grünwald. The number of amastigotes in 100 macrophages was determined by counting using optical microscope (100x objective). Furthermore, the cell culture supernatant was also collected for nitrite measurement using the Griess reaction, an indirect way of determining the concentration of nitric oxide in the supernatant of infected macrophages from the experimental groups. The results obtained were expressed as the mean ± S.E.M. of the number of amastigotes or nitrite concentration from duplicate cultures of representative assays, with the data analyzed by ANOVA and Dunnett hoc tests, considering a significance level of p < 0.05. […]
Background: The Griess reaction detects nitrite, a stable product of nitric oxide.

Data set [2] concerns L. major amastigote LV39 substrain. The data set is described as follows: In vitro activity against intramacrophage amastigotes, LV39. Conditions: Leishmania major. It is filed as cell-based. The method, then:
(§1) Briefly, female BALB/c mice (6 to 8 weeks old) received 1 mL sterile of 3% sodium thioglycolate by intraperitoneal route (i.p.) and were euthanized after 4 days. The intraperitoneal lavage was collected from the peritoneal cavity of mice using sterile PBS and cells were counted in a hemocytometer. Peritoneal adherent cells (macrophages) were plated at a concentration of 2 x 10^5 cells per well in 24-well culture plates containing glass coverslips. Subsequently, L. major promastigotes (harvested after the third passage) were added at a concentration of 2 x 10^6 parasites per well, aiming to infect the macrophages. […] After 24 hours in an incubator at 37 °C and 5% CO2, the coverslips were washed with PBS and stained with Giemsa-May Grünwald. The number of amastigotes in 100 macrophages was determined by counting using optical microscope (100x objective). Furthermore, the cell culture supernatant was also collected for nitrite measurement using the Griess reaction, an indirect way of determining the concentration of nitric oxide in the supernatant of infected macrophages from the experimental groups. The results obtained were expressed as the mean ± S.E.M. of the number of amastigotes or nitrite concentration from duplicate cultures of representative assays, with the data analyzed by ANOVA and Dunnett hoc tests, considering a significance level of p < 0.05. In addition, the linear regression analysis from the Kc values at employed concentrations was used to determine the IC50.

A short description of data set [3]: Aqueous solubility by UV spectroscopy. It counts as physicochemical. Conditions: phosphate buffer solution, buffer solution pH 7.4, 37 °C. How it is done: The solubility assay was carried out by correlating the concentration with the absorbance obtained by ultraviolet. First, a stock solution of the compound was prepared by dissolving 1 mg in 20 mL of methanol, and then the wavelength of greatest absorption of each compound was obtained by scanning between wavelengths from 200 nm to 500 nm. From the stock solution, six dilutions were prepared (dilution factor: 2.5), and the absorbance reading was performed in quartz cuvettes (10 mm optical path) in the UV-VIS spectrophotometer (Femto 800XI) at the previously determined wavelength. With the values obtained, a calibration curve with linear regression was made, in which the linearity of the analytical method is observed, with values of correlation coefficient (p > 0.95).
The compound was dissolved in a phosphate buffer solution (pH 7.4), prepared according to the Brazilian Pharmacopoeia (Vol.1) to obtain a supersaturated solution. The supersaturated aqueous solution was kept under stirring for 4 hours at 37°C and then the sample was filtered on a 0.45 μm filter to carry out the reading at the corresponding wavelength of the compound. The solubility was then determined through the equation of the straight line obtained by the linear regression of the calibration curve of each compound [19].

Data set [4] deals with L. major amasitigote 5-ASKH substrain. The data set is described as follows: In vitro activity against intramacrophage amastigotes, 5-ASKH. As to conditions: Leishmania major. It is filed as cell-based. How it is done:
as §1

The next data set can be described thus: PAMPA-BBB permeability. The text has this:
The parallel artificial membrane permeability assay uses 96-well plate in a “sandwich” type system, where one plate overlaps the other (PAMPA). […] The lipid mixture that impregnates the PVDF filter has a different constitution for the permeability tests for the blood-brain barrier (Brain lipid from pig extract in dodecane) and gastro-intestinal tract (L-α soy phosphatidylcholine in dodecane). In the PAMPA BBB and TGI assays, the optical density values obtained in the reading at each selected wavelength, for each of the compounds were analyzed in comparison with the values of several controls. In the case of the BBB, these values were used to elaborate an equation and determine the permeability coefficient (Pe), using a previously elaborated spreadsheet, and, for the TGI, these values were used to determine the absorbed fraction (Fa%), both using the Excel® program.
On the technique in general: In PAMPA a lipid-coated filter parts donor from acceptor wells.

The mark [5] stands for this setting: LASSBio-1491 10 μmol/Kg/day, glucantime 30 μmol/Kg/day x 28 days, i.p.

These results are taken from publication PMC9170106, “Pre-clinical evaluation of LASSBio-1491: From in vitro pharmacokinetic study to in vivo leishmanicidal activity” (PLoS ONE, 2022).

For orientation: IC50 means the concentration at which inhibition is half-maximal. Low values mean inhibition by little substance, high ones a need for much substance. What is called solubility is the dissolved amount per volume that the medium holds. Lower therefore signals little dissolved substance. As usually defined, the Papp is the rate of passage across a membrane or cell layer, normalised by area and donor concentration.

Each structure is given as a SMILES string. Several values for one entry are separate records, joined by “and”; a condition that tells them apart may be missing. Equal values may be shown once.

With `O=C(N/N=C/c1ccc([N+](=O)[O-])o1)NNC(=O)c1ccc(Cl)cc1` [LASSBio-1491], the lesion size result with L. major LV39 (setting [5]) is “reduced lesion size only between days 7 and 17”. Besides, the “parasite load in draining lymph node” value with L. major LV39 (setting [5]) is listed as “decreased parasite load”. In addition, the “parasite load in infected ear” value in the data set on L. major LV39 (setting [5]) is “decreased parasite load”. Besides, the “times more efficient than glucantime” value in the data set with L. major LV39 (similar effect at a dose three times lower) came to 3 times. The “NO production (nitrite)” value in data set [1] is on record as “increased NO production”. In addition, the IC50 in data set [2] (Macrophage, amastigote LV39 in macrophages, 24 h) came to 8.3 ± 0.3 µM; in data set [4] (Macrophage, amastigote 5-ASKH in macrophages, 24 h), 7.3 ± 0.6 µM. Also, the Emax in data set [2] (amastigote LV39, read-out: Maximum effect (% ± S.E.M.)) was determined as 60.2 ± 1.9%; in data set [4] (amastigote 5-ASKH, read-out: Maximum effect (% ± S.E.M.)) it was 67.5 ± 4.8%. Moreover, the solubility at 4 h in data set [3] was 8.72 µM and 3.06 µg/mL. The apparent permeability coefficient (Papp) in “PAMPA-BBB permeability” (PAMPA) came out at 2.96 ×10⁻⁶ cm/s. In “PAMPA-BBB permeability” (PAMPA-BBB), the Classification result is recorded as “CNS+/-”.
